# Results from patent US12110294B2, “CD73 compounds” (Gilead Sciences, Inc., priority 2020, dated 2024).
# pEC50, pIC50: −log10 of the molar value.
# Target: T1, CD73 (Homo sapiens, UniProt P21589)
# T1 construct: purchased R&D system
# T1 sequence (P21589 27-549): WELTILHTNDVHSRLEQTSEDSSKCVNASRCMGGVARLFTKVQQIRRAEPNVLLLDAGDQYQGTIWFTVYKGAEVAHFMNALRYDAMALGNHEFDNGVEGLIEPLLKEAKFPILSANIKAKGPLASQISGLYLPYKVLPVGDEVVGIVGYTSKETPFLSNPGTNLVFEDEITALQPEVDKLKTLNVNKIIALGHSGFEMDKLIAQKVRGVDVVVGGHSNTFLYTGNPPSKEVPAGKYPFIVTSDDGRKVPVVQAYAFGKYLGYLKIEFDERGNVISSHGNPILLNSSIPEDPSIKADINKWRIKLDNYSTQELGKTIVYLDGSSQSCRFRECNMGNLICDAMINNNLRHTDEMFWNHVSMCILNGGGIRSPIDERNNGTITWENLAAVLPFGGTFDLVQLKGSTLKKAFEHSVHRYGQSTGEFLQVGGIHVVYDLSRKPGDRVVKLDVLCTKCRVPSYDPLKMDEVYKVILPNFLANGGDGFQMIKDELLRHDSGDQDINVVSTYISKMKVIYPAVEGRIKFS
# Test: not given
# Type: biochemical
# Settings: 1 mM NaH2PO4 in enzyme buffer, final AMP 15 uM, final CD73 0.3 nM
row,SMILES,pIC50
1,"CN(C)C(=O)c1cn2nc(-c3c[nH]c(=O)[nH]c3=O)cc([C@H]3C[C@@H]3c3ccc(F)cc3)c2n1 (racemic) [Example 197, 6-(2,4-dioxo-1H-pyrimidin-5-yl)-8-[(1S,2S)-2-(4-fluorophenyl)cyclopropyl]-N,N-dimethyl-imidazo[1,2-b]pyridazine-2-carboxamide]",7.96
2,"O=C(c1cn2nc(-c3c[nH]c(=O)[nH]c3=O)cc([C@H]3C[C@@H]3c3ccc(F)cc3)c2n1)N1C[C@@H](F)[C@@H](F)C1 (racemic) [Example 200, 5-[2-[(3S,4R)-3,4-difluoropyrrolidine-1-carbonyl]-8-[(1S,2S)-2-(4-fluorophenyl)cyclopropyl]imidazo[1,2-b]pyridazin-6-yl]-1H-pyrimidine-2,4-dione]",< 6.60
3,O=c1[nH]cc(-c2cc(N3CCC4(C3)CC4(F)F)c3nccn3n2)c(=O)[nH]1 (centres unmarked) [Example 192],8.19
4,O=c1[nH]cc(-c2cc(N3CC(OCC(F)(F)F)C(F)(F)C3)c3nccn3n2)c(=O)[nH]1 (centres unmarked) [Example 203],8.52
5,"COC(=O)[C@H]1[C@@H]2CN(c3cc(-c4c[nH]c(=O)[nH]c4=O)nn4ccnc34)C[C@@H]21 [Example 314, methyl (1R,5S,6r)-3-(6-(2,4-dioxo-1,2,3,4-tetrahydropyrimidin-5-yl)imidazo[1,2-b]pyridazin-8-yl)-3-azabicyclo[3.1.0]hexane-6-carboxylate]",< 6.60

# Target: T2, CD73 activity in MDA-MB-231-GFP cells (Homo sapiens, UniProt P21589)
# T2 construct: endogenous in cells; host or cells: MDA-MB-231-GFP cells
# T2 sequence (P21589 27-549): T1 sequence (P21589 27-549)
# Test: MDA-MB-231 Cell Based CD73 Activity Assay (DMEM)
# Settings: 3000 cells per well, DMEM medium with 10% human plasma, overnight compound treatment, AMP 200 uM
row,SMILES,pEC50
1,"CN(C)C(=O)c1cn2nc(-c3c[nH]c(=O)[nH]c3=O)cc([C@H]3C[C@@H]3c3ccc(F)cc3)c2n1 (racemic) [Example 197, 6-(2,4-dioxo-1H-pyrimidin-5-yl)-8-[(1S,2S)-2-(4-fluorophenyl)cyclopropyl]-N,N-dimethyl-imidazo[1,2-b]pyridazine-2-carboxamide]",7.52
2,"O=C(c1cn2nc(-c3c[nH]c(=O)[nH]c3=O)cc([C@H]3C[C@@H]3c3ccc(F)cc3)c2n1)N1C[C@@H](F)[C@@H](F)C1 (racemic) [Example 200, 5-[2-[(3S,4R)-3,4-difluoropyrrolidine-1-carbonyl]-8-[(1S,2S)-2-(4-fluorophenyl)cyclopropyl]imidazo[1,2-b]pyridazin-6-yl]-1H-pyrimidine-2,4-dione]",6.09
3,"O=c1[nH]cc(-c2cc(N3CCC(CC(F)(F)F)C3)c3nccn3n2)c(=O)[nH]1 (racemic) [Example 452, 5-(8-(3-(2,2,2-trifluoroethyl)pyrrolidin-1-yl)imidazo[1,2-b]pyridazin-6-yl)pyrimidine-2,4(1H,3H)-dione]",7.02
4,"O=c1[nH]cc(-c2cc(N3CCC(CC(F)F)C3)c3nccn3n2)c(=O)[nH]1 (racemic) [Example 453, 5-(8-(3-(2,2-difluoroethyl)pyrrolidin-1-yl)imidazo[1,2-b]pyridazin-6-yl)pyrimidine-2,4(1H,3H)-dione]",6.95
5,"O=c1[nH]cc(-c2cc([C@H]3C[C@@H]3c3nc4ccccc4[nH]3)c3nccn3n2)c(=O)[nH]1 (racemic) [Example 461, 5-(8-((1S,2S)-2-(1H-benzo[d]imidazol-2-yl)cyclopropyl)imidazo[1,2-b]pyridazin-6-yl)pyrimidine-2,4(1H,3H)-dione]",7.94
6,"O=c1[nH]cc(-c2cc([C@H]3C[C@@H]3c3ccc(F)c(F)c3F)c3nccn3n2)c(=O)[nH]1 (racemic) [Example 464, 5-(8-((2S,2S)-2-(2,3,4-trifluorophenyl)cyclopropyl)imidazo[1,2-b]pyridazin-6-yl)pyrimidine-2,4(1H,3H)-dione]",7.79
7,"N#Cc1ccc(F)c([C@H]2C[C@@H]2c2cc(-c3c[nH]c(=O)[nH]c3=O)nn3ccnc23)c1 (racemic) [Example 466, 3-((2S,2S)-2-(6-(2,4-dioxo-1,2,3,4-tetrahydropyrimidin-5-yl)imidazo[1,2-b]pyridazin-8-yl)cyclopropyl)-4-fluorobenzonitrile]",7.70
8,"O=c1[nH]cc(-c2cc([C@H]3C[C@@H]3c3c(F)ccc(F)c3F)c3nccn3n2)c(=O)[nH]1 (racemic) [Example 468, 5-(8-((2S,2S)-2-(2,3,6-trifluorophenyl)cyclopropyl)imidazo[1,2-b]pyridazin-6-yl)pyrimidine-2,4(1H,3H)-dione]",7.88
9,"O=c1[nH]cc(-c2cc([C@H]3C[C@@H]3c3cc4c(cn3)cnn4CC(F)(F)F)c3ncc(Cl)n3n2)c(=O)[nH]1 (racemic) [Example 471, 5-(3-chloro-8-((2S,2S)-2-(1-(2,2,2-trifluoroethyl)-1H-pyrazolo[4,3-c]pyridin-6-yl)cyclopropyl)imidazo[1,2-b]pyridazin-6-yl)pyrimidine-2,4(1H,3H)-dione]",9.62
10,"CC1(C)C(=O)N(CC(F)(F)F)c2cc([C@H]3C[C@@H]3c3cc(-c4c[nH]c(=O)[nH]c4=O)nn4ccnc34)ncc21 (racemic) [Example 718, 5-[8-[(1S,2S)-2-[3,3-dimethyl-2-oxo-1-(2,2,2-trifluoroethyl)pyrrolo[3,2-c]pyridin-6-yl]cyclopropyl]imidazo[1,2-b]pyridazin-6-yl]-1H-pyrimidine-2,4-dione]",9.48
11,"O=c1[nH]cc(-c2cc([C@H]3C[C@@H]3c3cc(OCC(F)(F)F)c4ncccc4c3)c3nccn3n2)c(=O)[nH]1 (racemic) [Example 732, 5-(8-((2S,2S)-2-(8-(2,2,2-trifluoroethoxy)quinolin-6-yl)cyclopropyl)imidazo[1,2-b]pyridazin-6-yl)pyrimidine-2,4(1H,3H)-dione]",8.60
12,"O=C1N(CC2(F)CC2)c2cc([C@H]3C[C@@H]3c3cc(-c4c[nH]c(=O)[nH]c4=O)nn4c(F)cnc34)ccc2C12CC2 (racemic) [Example 735, 5-(3-fluoro-8-((2S,2S)-2-(1′-((1-fluorocyclopropyl)methyl)-2′-oxospiro[cyclopropane-1,3′-indolin]-6′-yl)cyclopropyl)imidazo[1,2-b]pyridazin-6-yl)pyrimidine-2,4(1H,3H)-dione]",9.42
13,"O=C1N(CC(F)(F)F)c2cc([C@H]3C[C@@H]3c3cc(-c4c[nH]c(=O)[nH]c4=O)nn4ccnc34)c(F)cc2C12CC2 (racemic) [Example 748, 5-(8-((2S,2S)-2-(5′-fluoro-2′-oxo-1′-(2,2,2-trifluoroethyl)spiro[cyclopropane-1,3′-indolin]-6′-yl)cyclopropyl)imidazo[1,2-b]pyridazin-6-yl)pyrimidine-2,4(1H,3H)-dione]",8.75
14,"O=C(c1ccc([C@H]2C[C@@H]2c2cc(-c3c[nH]c(=O)[nH]c3=O)nn3c(F)cnc23)cc1)N1CC(F)(F)C1 (single isomer, unassigned) [Example 313]",8.01
15,"O=c1[nH]cc(-c2cc([C@H]3C[C@@H]3c3cnn(C(F)F)c3)c3ncc(F)n3n2)c(=O)[nH]1 (single isomer, unassigned) [Example 371]",7.75
16,"O=c1[nH]cc(-c2cc([C@H]3C[C@@H]3c3ccc(OC(F)(F)F)cn3)c3nccn3n2)c(=O)[nH]1 (single isomer, unassigned) [Example 373]",8.02
17,"O=C1N(CC(F)(F)F)c2cc([C@H]3C[C@@H]3c3cc(-c4c[nH]c(=O)[nH]c4=O)nn4ccnc34)ccc2C12CC2 (single isomer, unassigned) [Example 391]",10.00
18,"O=C1N(CC(F)(F)F)c2cc([C@H]3C[C@@H]3c3cc(-c4c[nH]c(=O)[nH]c4=O)nn4c(Cl)cnc34)ccc2C12CC2 (single isomer, unassigned) [Example 740]",9.55
19,"O=C1N(CC(F)(F)F)c2cc([C@H]3C[C@@H]3c3cc(-c4c[nH]c(=O)[nH]c4=O)nn4c(Cl)c(Cl)nc34)ccc2C12CC2 (single isomer, unassigned) [Example 741]",9.17
20,"O=c1[nH]cc(-c2cc([C@H]3C[C@@H]3c3cc4c(cn3)cnn4CC(F)(F)F)c3ncc(F)n3n2)c(=O)[nH]1 [Example 611, 5-(3-fluoro-8-((2S,2S)-2-(1-(2,2,2-trifluoroethyl)-1H-pyrazolo[4,3-c]pyridin-6-yl)cyclopropyl)imidazo[1,2-b]pyridazin-6-yl)pyrimidine-2,4(1H,3H)-dione]",10.15
21,"O=c1[nH]cc(-c2cc(N3C[C@H]4CC[C@@H]3C4)c3nccn3n2)c(=O)[nH]1 [Example 642, 5-(8-((1R,4S)-2-azabicyclo[2.2.1]heptan-2-yl)imidazo[1,2-b]pyridazin-6-yl)pyrimidine-2,4(1H,3H)-dione]",6.81
